Earlier results as cited in patent US20160346171A1, “ORAL COMPOSITION AND CONFECTION” (TEIKYO UNIVERSITY, priority 2015, published 2016).
Read-outs that look alike come from different tables or passages of the source.

Tests used:
[1] = system: Candida; conditions: for concentration inhibiting in vitro Candida mycelial growth by 95%: each independently, JP 2013-40156 A
[2] = system: Candida; conditions: mouse

Structure (SMILES) | concentration inhibiting in vitro Candida mycelial growth by 95% [1] | tongue symptoms ([2]; 19.5 mg/mL solution, three times (50 μL at a time) into the oral cavity, Taguchi Y. et al. 2011) | concentration inhibiting in vitro Candida mycelial growth by 50% ([1]; Inoue S. et al. 2012) | tongue symptoms ([2]; 1% (=10 mg/mL) solution, three times (50 μL at a time), JP 2013-40156 A)
CC(C)=CCCC(C)=CC=O [citral] | at least 50 μg/mL | – | – | –
CC(C)=CCC/C(C)=C/CO [geraniol] | at least 25 μg/mL | – | – | –
O=CC=Cc1ccccc1 [cinnamaldehyde] | – | ameliorated the tongue symptoms | – | –
C=CCc1ccc(O)c(OC)c1 [eugenol] | at least 200 μg/mL | – | – | –
CCCCCCCCCC(=O)O [decanoic acid] | at least 3.13 μg/mL | – | ≥ 3.13 µg/mL | ameliorated the tongue symptoms
